Measured values as given in patent US5559209A, “Regulator regions of G proteins” (The General Hospital Corporation, priority 1993, dated 1996).
Where no end group is shown, it is not given here.

Tests used:
Go = Go (Homo sapiens, UniProt P09471); experiment: GTPγS binding, MIII-induced Go activation; assay type: biochemical; conditions: 10 nM Go, 1 μM MIII, 2 min
Experimental: (§1) GTPγS binding Assay--GTPγS binding to G proteins was assayed at 37° C. in 20 mM Hepes/NaOH buffer (pH 7.4) containing 130 μM MgCl2, 110 μM EDTA and 60 nM [^35 S]GTPγS, as described previously (Okamoto et al., 1990). GTPγS binding to polypeptides was negligible. The total amount of G protein was measured as maximal GTPγS binding at room temperature, as described (Okamoto et al., Cell 67:723-730, 1991a). [^35 S]GTPγS was purchased from DuPont-New England Nuclear. Binding of GTPγS to G proteins obeyed first-order kinetics according to the equation ln[(BT-B)/BT]=-kapp t, where B is the binding at time t and BT is the total binding observable at an infinite time. Thus, the apparent first-order rate constant for GTPγS binding (kapp), which is equal to the slope of the tangent to the GTPγS binding curve at time 0 and represents the actual GTPγS binding rate, was calculated from this equation.
The MIII peptide is a Gi /Go -activator region in the third intracellular loop of the G-coupled receptor termed M4 AChR (Okamoto et al., J. Biol. Chem. 267:8342-8346, 1992). This peptide has the sequence RNQVRKKRQMAARERKVTR (SEQ ID NO: 30). In the experiments illustrated in FIG. 1D, 10 nM Go (.quadrature.) or Gi2 (.diamond-solid.) was incubated with 1 μM MIII for 2 or 5 min, respectively, and GTPγS binding was measured in the same manner as in FIG. 1A. […]

Gs = target: T1, Gs (Bos taurus, UniProt P04896); experiment: GTPγS binding, βIII-2-induced Gs activation; assay type: biochemical, bovine; conditions: 10 nM Gs, 1 μM βIII-2, 10 min
T1 construct: Trimeric Gs and Gβγ purified from bovine brain to near homogeneity; from tissue; host or cells: bovine brain
T1 sequence (P04896 2-394 limits assumed): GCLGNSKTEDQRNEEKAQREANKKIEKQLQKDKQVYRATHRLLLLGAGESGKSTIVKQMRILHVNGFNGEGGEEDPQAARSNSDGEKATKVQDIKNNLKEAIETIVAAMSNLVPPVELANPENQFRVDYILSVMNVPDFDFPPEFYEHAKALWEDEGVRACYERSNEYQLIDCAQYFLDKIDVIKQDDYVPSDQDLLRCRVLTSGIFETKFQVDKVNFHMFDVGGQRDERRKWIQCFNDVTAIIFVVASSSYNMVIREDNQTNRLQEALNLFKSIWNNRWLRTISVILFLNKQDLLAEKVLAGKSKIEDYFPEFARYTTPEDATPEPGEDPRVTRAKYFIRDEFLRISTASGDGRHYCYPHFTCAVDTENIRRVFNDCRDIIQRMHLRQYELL
T1 sequence (P62871 2-340 partner limits assumed): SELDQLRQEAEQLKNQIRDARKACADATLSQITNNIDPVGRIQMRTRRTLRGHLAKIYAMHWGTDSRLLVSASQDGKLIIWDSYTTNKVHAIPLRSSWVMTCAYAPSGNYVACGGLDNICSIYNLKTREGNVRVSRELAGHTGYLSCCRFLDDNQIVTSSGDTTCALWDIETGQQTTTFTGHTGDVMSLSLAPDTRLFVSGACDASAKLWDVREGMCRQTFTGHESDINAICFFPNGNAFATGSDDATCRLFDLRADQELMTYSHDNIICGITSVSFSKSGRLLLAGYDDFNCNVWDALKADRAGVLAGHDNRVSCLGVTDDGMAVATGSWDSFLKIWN
T1 sequence (P63212 2-68 partner limits assumed): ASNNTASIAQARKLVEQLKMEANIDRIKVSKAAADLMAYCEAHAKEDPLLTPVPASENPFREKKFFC
Experimental: (§2) Materials and Methods The in vitro assays described below utilize the couplone portion of each of a number of G-coupled receptors, instead of an intact receptor molecule, as a means for activating the corresponding anticouplone or intact G-protein. […]
as §1, with “GTPγS binding to polypeptides was negligible.” left out, “[^35 S]GTPγS was purchased from DuPont-New England Nuclear. Binding of GTPγS to G proteins obeyed first-order kinetics according to the equation ln[(BT-B)/BT]=-kapp t, where B is the binding at time t and BT is the total binding observable at an infinite time.” left out
GTPβS binding was measured following incubation of solubilized Gs at 10 nM with 1 μM βIII-2 (RRSSKFCLKEHKALK; SEQ ID NO: 29) in the presence of ACGi2 for 10 min. […]

Gi3 = target: T2, Gi3 (Bos taurus, UniProt Q3ZCA7); experiment: GTPγS binding, peptide 14-induced Gi3 activation; assay type: biochemical, bovine; conditions: 10 nM Gi3, 30 μM peptide 14, 4 min
T2 construct: was purified from bovine spleen and used in combination with 1.5-fold concentrated Gβγ; from tissue; host or cells: bovine spleen (Gi3 α); bovine brain (Gβγ)
T2 sequence (Q3ZCA7 2-354 limits assumed): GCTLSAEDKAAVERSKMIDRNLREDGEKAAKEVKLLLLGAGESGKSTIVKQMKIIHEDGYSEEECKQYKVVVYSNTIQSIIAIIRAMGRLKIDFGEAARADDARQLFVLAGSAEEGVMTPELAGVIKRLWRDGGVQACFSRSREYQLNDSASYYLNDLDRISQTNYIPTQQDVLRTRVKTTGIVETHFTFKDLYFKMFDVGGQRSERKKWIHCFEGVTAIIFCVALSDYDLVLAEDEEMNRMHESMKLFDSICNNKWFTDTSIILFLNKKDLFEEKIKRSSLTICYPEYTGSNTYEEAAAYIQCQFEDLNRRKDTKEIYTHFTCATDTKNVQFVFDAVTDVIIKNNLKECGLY
T2 sequence (P62871 2-340 partner limits assumed): as the sequence (P62871 2-340 partner limits assumed) above
T2 sequence (P63212 2-68 partner limits assumed): as the sequence (P63212 2-68 partner limits assumed) above
Experimental: as §2
as §1, with “GTPγS binding to polypeptides was negligible.” left out, “[^35 S]GTPγS was purchased from DuPont-New England Nuclear. Binding of GTPγS to G proteins obeyed first-order kinetics according to the equation ln[(BT-B)/BT]=-kapp t, where B is the binding at time t and BT is the total binding observable at an infinite time.” left out
Peptide 14 is capable of activating Gi1 and Gi3 as well as Gi2 (Okamoto et al., 1990). The effect of ACGi2 on peptide 14-induced activation of these Gi proteins was examined as follows: 10 nM Gi1 (.quadrature.) or Gi3 (.diamond-solid.) was incubated with 30 μM peptide 14 in the presence of various concentrations of ACGi2 for 4 min, and GTPβS binding was measured. […]

mAChR-Gi2 coupling = target: T3, mAChR-Gi2 coupling (Bos taurus, UniProt A7MBH9); experiment: GTPγS binding rate in mAChR-Gi2 reconstituted phospholipid vesicles; assay type: biochemical, porcine mAChR, bovine Gi2; conditions: 30 μM ACGi2, 10 mM acetylcholine; read-out: inhibition of acetylcholine-induced Gi2 activation
T3 construct: trimeric Gi2 purified from bovine spleen to homogeneity; from tissue; host or cells: bovine spleen (Gi2); porcine brain (mAChR)
T3 sequence (A7MBH9 2-355 limits assumed): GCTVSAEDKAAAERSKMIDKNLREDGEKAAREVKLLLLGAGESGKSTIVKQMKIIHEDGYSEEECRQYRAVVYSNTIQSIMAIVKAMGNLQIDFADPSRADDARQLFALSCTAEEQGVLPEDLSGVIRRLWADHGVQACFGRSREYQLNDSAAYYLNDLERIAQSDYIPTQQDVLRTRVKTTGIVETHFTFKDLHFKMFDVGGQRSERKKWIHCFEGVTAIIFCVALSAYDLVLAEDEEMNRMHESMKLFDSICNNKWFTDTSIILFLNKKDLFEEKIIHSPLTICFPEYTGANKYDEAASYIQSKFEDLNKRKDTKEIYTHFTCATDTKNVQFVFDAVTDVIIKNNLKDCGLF
T3 sequence (P62871 2-340 partner limits assumed): as the sequence (P62871 2-340 partner limits assumed) above
T3 sequence (P63212 2-68 partner limits assumed): as the sequence (P63212 2-68 partner limits assumed) above
Experimental: as §2
GTPγS binding Assay--GTPγS binding to G proteins was assayed at 37° C. in 20 mM Hepes/NaOH buffer (pH 7.4) containing 130 μM MgCl2, 110 μM EDTA and 60 nM [^35 S]GTPγS, as described previously (Okamoto et al., 1990). […] The total amount of G protein was measured as maximal GTPγS binding at room temperature, as described (Okamoto et al., Cell 67:723-730, 1991a). […] Thus, the apparent first-order rate constant for GTPγS binding (kapp), which is equal to the slope of the tangent to the GTPγS binding curve at time 0 and represents the actual GTPγS binding rate, was calculated from this equation. […]

Gi1 = Gi1 (Bos taurus, UniProt P63097); experiment: GTPγS binding, peptide 14-induced Gi1 activation; assay type: biochemical; conditions: high concentrations (≥30 μM) of ACGi2; 10 nM Gi1, 30 μM peptide 14, 4 min
Chain of Gi1 (P63097 2-354 limits assumed): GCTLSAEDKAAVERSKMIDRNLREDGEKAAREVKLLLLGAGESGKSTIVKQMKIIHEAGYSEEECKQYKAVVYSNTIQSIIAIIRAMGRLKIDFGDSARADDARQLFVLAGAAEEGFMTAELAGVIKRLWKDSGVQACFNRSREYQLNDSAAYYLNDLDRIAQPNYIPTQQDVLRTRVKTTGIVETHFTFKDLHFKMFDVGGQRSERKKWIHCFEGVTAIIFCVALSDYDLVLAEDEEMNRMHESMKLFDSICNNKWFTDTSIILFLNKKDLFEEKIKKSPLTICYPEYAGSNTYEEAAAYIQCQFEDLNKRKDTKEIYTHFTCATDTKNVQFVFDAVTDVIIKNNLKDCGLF
Chain of Gi1 (P62871 2-340 partner limits assumed): as the sequence (P62871 2-340 partner limits assumed) above
Chain of Gi1 (P63212 2-68 partner limits assumed): as the sequence (P63212 2-68 partner limits assumed) above
Experimental: as §1
Peptide 14 is capable of activating Gi1 and Gi3 as well as Gi2 (Okamoto et al., 1990). The effect of ACGi2 on peptide 14-induced activation of these Gi proteins was examined as follows: 10 nM Gi1 (.quadrature.) or Gi3 (.diamond-solid.) was incubated with 30 μM peptide 14 in the presence of various concentrations of ACGi2 for 4 min, and GTPβS binding was measured. The fractional GTPγS binding to Gi1 or Gi3 at 0% was (in 4 min^-1) 0.38 or 0.30, and that at 100% was 0.54 or 0.63, respectively.

Chain of Go (P09471 2-354 limits assumed): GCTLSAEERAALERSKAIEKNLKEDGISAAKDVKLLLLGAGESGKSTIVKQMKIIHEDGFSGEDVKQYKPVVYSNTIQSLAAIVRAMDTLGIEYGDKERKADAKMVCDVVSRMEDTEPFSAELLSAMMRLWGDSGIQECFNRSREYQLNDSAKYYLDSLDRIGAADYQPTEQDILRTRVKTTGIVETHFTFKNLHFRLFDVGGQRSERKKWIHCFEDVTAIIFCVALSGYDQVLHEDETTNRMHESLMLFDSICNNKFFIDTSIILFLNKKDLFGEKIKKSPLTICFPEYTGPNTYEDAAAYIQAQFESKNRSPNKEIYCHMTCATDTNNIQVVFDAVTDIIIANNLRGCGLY
Chain of Go (P62873 2-340 partner limits assumed): as the sequence (P62871 2-340 partner limits assumed) above
Chain of Go (P59768 2-68 partner limits assumed): as the sequence (P63212 2-68 partner limits assumed) above

DAVTDVIIKNNLKDC [ACGi2, DAVTDVIIKNNLKDC]
IC50 (Go): ~30 µM | maximal inhibition of βIII-2-stimulated Gs (Gs): 40% | maximal inhibition of peptide 14-induced Gi3 activation (Gi3): ≈ 60% | inhibition at 30 µM (mAChR-Gi2 coupling): ~75% | maximal inhibition of peptide 14-induced Gi1 activation (Gi1): 30%
